In ChEMBL document CHEMBL4152332, “Discovery and synthesis of novel magnolol derivatives with potent anticancer activity in non-small cell lung cancer” (Eur J Med Chem, 2018):

What was measured:
NCI-H1975 [1] = assay: Antitumor activity against human NCI-H1975 cells xenografted in Balb/c mouse assessed as change in tumor mass at 100 mg/kg, po qd treated for 18 days and measured every 2 days after compound dosing relative to control; assay type: functional
Mus musculus [2] = assay: Toxicity in Balb/c mouse xenografted with human NCI-H1975 cells assessed as change in body weight at 20 mg/kg, iv treated every 2 days for 9 days and measured every 2 days after compound dosing ( Rvb = 2.89%); assay type: organism-based; conditions: in vivo
Mus musculus [3] = assay: Toxicity in Balb/c mouse implanted with mouse C26 cells assessed as change in body weight at 100 mg/kg, po qd treated for 10 days and measured every 2 days (RVB = 16.4%); assay type: organism-based; conditions: in vivo
[4] = Apparent aqueous solubility of the compound by HPLC analysis; assay type: physicochemical; conditions: aqueous solution
NCI-H1650 = assay: Antiproliferative activity against human NCI-H1650 cells after 72 hrs by MTT assay; assay type: functional, cell-based; conditions: NCI-H1650, 72 h
NCI-H1975 [5] = assay: Cell cycle arrest in human NCI-H1975 cells assessed as accumulation at S phase at 40 uM after 24 hrs by propidium iodide staining-based flow cytometric analysis (reference value: 22.93%); assay type: functional
NCI-H1975 [6] = assay: Antiproliferative activity against human NCI-H1975 cells after 72 hrs by MTT assay; assay type: functional, cell-based; conditions: NCI-H1975, 72 h
NCI-H1975 [7] = assay: Induction of apoptosis in human NCI-H1975 cells assessed as early apoptotic cells at 40 uM after 48 hrs by annexin V/FITC-propidium iodide staining-based flow cytometric method ( Rvb = 6.09%); assay type: functional
Mus musculus [8] = assay: Toxicity in Balb/c mouse xenografted with human NCI-H1975 cells assessed as mouse death at 20 mg/kg, iv treated every 2 days for 9 days and measured every 2 days after compound dosing; assay type: organism-based; conditions: in vivo
NCI-H1975 [9] = assay: Antitumor activity against human NCI-H1975 cells xenografted in Balb/c mouse assessed as change in tumor mass at 20 mg/kg, iv treated every 2 days for 9 days and measured every 2 days after compound dosing relative to control; assay type: functional
Mus musculus [10] = assay: Toxicity in Balb/c mouse implanted with mouse C26 cells assessed as mouse death at 100 mg/kg, po qd treated for 10 days; assay type: organism-based; conditions: in vivo, 240 h
NCI-H460 = assay: Antiproliferative activity against human H460 cells after 72 hrs by MTT assay; assay type: functional, cell-based; conditions: NCI-H460, 72 h
NCI-H1975 [11] = assay: Induction of apoptosis in human NCI-H1975 cells assessed as viable cells at 40 uM after 48 hrs by annexin V/FITC-propidium iodide staining-based flow cytometric method ( Rvb = 82.5%); assay type: functional; conditions: NCI-H1975, 48 h, read-out: Activity
NCI-H441 = assay: Antiproliferative activity against human H441 cells after 72 hrs by MTT assay; assay type: functional, cell-based; conditions: NCI-H441, 72 h
HCC827 = assay: Antiproliferative activity against human HCC827 cells after 72 hrs by MTT assay; assay type: functional, cell-based; conditions: HCC827, 72 h
Mus musculus [12] = assay: Toxicity in Balb/c mouse xenografted with human NCI-H1975 cells assessed as change in body weight at 100 mg/kg, po qd treated for 18 days and measured every 2 days after compound dosing ( Rvb = 2.89%); assay type: organism-based; conditions: in vivo
PC-9 = assay: Antiproliferative activity against human PC9 cells after 72 hrs by MTT assay; assay type: functional, cell-based; conditions: PC-9, 72 h
[13] = Antitumor activity against mouse C26 cells implanted in Balb/c mouse assessed as tumor growth inhibition at 100 mg/kg, po qd and measured every 2 days relative to control; assay type: functional; conditions: 48 h, read-out: TGI
NCI-H1975 [14] = assay: Cell cycle arrest in human NCI-H1975 cells assessed as accumulation at G2/M phase at 40 uM after 24 hrs by propidium iodide staining-based flow cytometric analysis (reference value: 20.11%); assay type: functional
[15] = Antiproliferative activity against human SPC-A1 cells after 72 hrs by MTT assay; assay type: functional, cell-based; conditions: SPCA1, 72 h
NCI-H1975 [16] = assay: Induction of apoptosis in human NCI-H1975 cells assessed as late apoptotic cells at 40 uM after 48 hrs by annexin V/FITC-propidium iodide staining-based flow cytometric method ( Rvb = 10.4%); assay type: functional
NCI-H1975 [17] = assay: Cell cycle arrest in human NCI-H1975 cells assessed as accumulation at G0/G1 phase at 40 uM after 24 hrs by propidium iodide staining-based flow cytometric analysis (reference value: 56.11%); assay type: functional
NCI-H1975 [18] = assay: Induction of apoptosis in human NCI-H1975 cells assessed as necrotic cells at 40 uM after 48 hrs by annexin V/FITC-propidium iodide staining-based flow cytometric method ( Rvb = 1.01%); assay type: functional
Mus musculus [19] = assay: Toxicity in Balb/c mouse xenografted with human NCI-H1975 cells assessed as mouse death at 100 mg/kg, po qd treated for 18 days and measured every 2 days after compound dosing; assay type: organism-based; conditions: in vivo
NCI-H358 = assay: Antiproliferative activity against human NCI-H358 cells after 72 hrs by MTT assay; assay type: functional, cell-based; conditions: NCI-H358, 72 h

## C=CCc1ccc(O)c(-c2ccc(O)c(CC=C)c2)c1 [HONOKIOL]
NCI-H1975 [1]
  Activity: 11.8%
Mus musculus [2]
  Activity: 6.1%
Mus musculus [3]
  Activity: 6.92%
[4]
  solubility: < 10 µg/mL
NCI-H1650
  IC50: 37.4 µM
NCI-H1975 [5]
  Activity: 6.54%
NCI-H1975 [6]
  IC50: 30.2 µM
NCI-H1975 [7]
  Activity: 43.8%
Mus musculus [8]
  Activity: Non-Toxic
NCI-H1975 [9]
  Activity: 73%
Mus musculus [10]
  Activity: Non-Toxic
NCI-H460
  IC50: 38.5 µM
NCI-H1975 [11]
  viability at 40 µM: 47.4%
NCI-H441
  IC50: 33.3 µM
HCC827
  IC50: 33.9 µM
Mus musculus [12]
  Activity: 1.38%
PC-9
  IC50: 36.7 µM
[13]
  inhibition in vivo at 100 mg/kg: 16.7%
NCI-H1975 [14]
  Activity: 18.55%
[15]
  IC50: 39 µM
NCI-H1975 [16]
  Activity: 7.97%
NCI-H1975 [17]
  Activity: 67.42%
NCI-H1975 [18]
  Activity: 0.87%
Mus musculus [19]
  Activity: Non-Toxic
NCI-H358
  IC50: 31.6 µM
